Experimental data reported in article PMC7902330, “Pharmacokinetic study of traditional Japanese Kampo medicine shimotsuto used to treat gynecological diseases in rats” (Journal of Natural Medicines, 2021).
Where two headings read alike, the source gives them in different places.

Columns and labels:
[1] = system: blood viscosity; set-up: method as in PMID 28299338; conditions: rat model; cited from earlier work
[2] = molecular target: T1, human TRPV4 (Homo sapiens, UniProt Q9HBA0); assay: Ca2+ influx assay for TRP channel agonistic activity in T-REx-293 cells; assay type: cell-based; conditions: 10 µmol/L test ingredient, positive control 4 µmol/L GSK1016790A, read-out: % Activation compared to positive control, TRPV4
T1 construct: The full length of each of human transient receptor potential ankyrin 1 (TRPA1); expressed in transfected cells
T1 sequence (Q9HBA0 whole entry): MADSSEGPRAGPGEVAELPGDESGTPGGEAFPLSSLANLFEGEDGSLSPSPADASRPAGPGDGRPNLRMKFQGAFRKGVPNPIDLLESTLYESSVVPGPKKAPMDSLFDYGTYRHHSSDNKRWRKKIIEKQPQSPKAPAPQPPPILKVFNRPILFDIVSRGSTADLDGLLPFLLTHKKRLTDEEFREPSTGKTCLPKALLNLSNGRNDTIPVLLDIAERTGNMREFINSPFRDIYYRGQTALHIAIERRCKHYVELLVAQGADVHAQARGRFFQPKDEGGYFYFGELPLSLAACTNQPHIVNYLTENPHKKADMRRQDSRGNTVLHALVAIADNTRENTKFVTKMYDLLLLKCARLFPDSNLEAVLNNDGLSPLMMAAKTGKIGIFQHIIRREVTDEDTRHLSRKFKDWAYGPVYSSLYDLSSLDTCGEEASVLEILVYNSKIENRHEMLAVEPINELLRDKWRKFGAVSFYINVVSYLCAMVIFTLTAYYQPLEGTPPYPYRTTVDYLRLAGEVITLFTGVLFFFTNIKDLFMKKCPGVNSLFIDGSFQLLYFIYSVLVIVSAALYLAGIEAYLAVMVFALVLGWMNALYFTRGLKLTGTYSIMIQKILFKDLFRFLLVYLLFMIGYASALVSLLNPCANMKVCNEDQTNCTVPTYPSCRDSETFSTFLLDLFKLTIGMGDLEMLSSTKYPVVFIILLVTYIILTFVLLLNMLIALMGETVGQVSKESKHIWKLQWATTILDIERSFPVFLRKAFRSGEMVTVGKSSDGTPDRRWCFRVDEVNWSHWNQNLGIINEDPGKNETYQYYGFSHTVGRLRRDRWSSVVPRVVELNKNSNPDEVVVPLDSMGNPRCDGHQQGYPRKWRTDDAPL
Description: (§1) The full length of each of human transient receptor potential ankyrin 1 (TRPA1), transient receptor potential cation channel subfamily V member 1 (TRPV1), transient receptor potential cation channel subfamily V member 4 (TRPV4), and transient receptor potential cation channel subfamily M member 8 (TRPM8) coding region was introduced into a pcDNA4/TO vector (Thermo Fisher Scientific, Waltham, MA, USA) and transfected into T-REx-293 cells (Thermo Fisher Scientific) to obtain stable cell lines expressing human TRPA1, TRPV1, TRPV4, and TRPM8. Next, the cells were cultured in Dulbecco’s Modified Eagle Medium containing 10% fetal bovine serum (FBS), 4 mM L-glutamine, and penicillin/streptomycin.
(§2) First, cells were suspended in culture medium with 1 µg/mL of tetracycline and seeded on a poly-D-lysine-coated 96-well plate at a density of 2.5 × 10^4 cells/well overnight. Next, the cells were used for Ca^2+ influx assay, as described previously with minor modifications, using a FLIPR Calcium 5 Assay Kit (Molecular Devices, San Jose, CA, USA). Briefly, cells were incubated in 80 µL of a Ca^2+-chelating dye dissolved in assay buffer at pH 7.4 (Hanks’ Balanced Salt Solution containing 20 mmol/L of 4-(2-hydroxyethyl)-1-piperazineethanesulfonic acid [HEPES]) for 30 min at room temperature. Next, the plates were assayed in a FlexStation 3 microplate reader (Molecular Devices). The fluorescence intensity was traced entirely for 80 s, and the fluorescence baseline was measured 20 s before application of 20 µL of the test compound (final concentration = 10 µmol/L). The response was expressed as percentage activation as follows:
(§3) Relative fluorescence units (RFU) (% activation) = ([RFUmax − RFUbaseline]/RFUbaseline) × 100
(§4) The activity of each test compound against TRPA1, TRPV1, TRPV4, and TRPM8 was represented as the relative enhancement of the Ca^2+ influx of each positive control as follows: 20 µmol/L of allyl isothiocyanate (TRPA1 agonist), 2 µmol/L of capsaicin (TRPV1 agonist), 4 µmol/L of GSK1016790A (TRPV4 agonist), and 20 µmol/L of icilin (TRPM8 agonist). The dose–response curve was fitted to the sigmoidal dose–response equation (Top: maximum response of each compound), and EC50 was calculated using GraphPad prism 7 software (GraphPad, San Diego, CA, USA).
(§5) Calcium ion influx into TRPA1-, TRPV1-, TRPV4-, or TRPM8-expressing T-REx-293 cells was measured to evaluate the agonistic effect of shimotsuto ingredients on TRP channels. The action of 10 µmol/L of each test ingredient was represented as the relative enhancement of the Ca^2+ influx of each positive control, indicated as follows: 20 µmol/L each of allyl isothiocyanate (TRPA1 agonist), 2 µmol/L capsaicin (TRPV1 agonist), 4 µmol/L GSK1016790A (TRPV4 agonist), and 20 µmol/L icilin (TRPM8 agonist). Dose–response tests of shimotsuto ingredients against TRPA1 were performed to calculate EC50.

[3] = molecular target: T2, human TRPV1 (Homo sapiens, UniProt Q8NER1); assay: as above; assay type: cell-based; conditions: 10 µmol/L test ingredient, positive control 2 µmol/L capsaicin, read-out: % Activation compared to positive control, TRPV1
T2 construct: The full length of each of human transient receptor potential ankyrin 1 (TRPA1), transient receptor potential cation channel subfamily V member 1 (TRPV1); expressed in transfected cells
T2 sequence (Q8NER1 whole entry): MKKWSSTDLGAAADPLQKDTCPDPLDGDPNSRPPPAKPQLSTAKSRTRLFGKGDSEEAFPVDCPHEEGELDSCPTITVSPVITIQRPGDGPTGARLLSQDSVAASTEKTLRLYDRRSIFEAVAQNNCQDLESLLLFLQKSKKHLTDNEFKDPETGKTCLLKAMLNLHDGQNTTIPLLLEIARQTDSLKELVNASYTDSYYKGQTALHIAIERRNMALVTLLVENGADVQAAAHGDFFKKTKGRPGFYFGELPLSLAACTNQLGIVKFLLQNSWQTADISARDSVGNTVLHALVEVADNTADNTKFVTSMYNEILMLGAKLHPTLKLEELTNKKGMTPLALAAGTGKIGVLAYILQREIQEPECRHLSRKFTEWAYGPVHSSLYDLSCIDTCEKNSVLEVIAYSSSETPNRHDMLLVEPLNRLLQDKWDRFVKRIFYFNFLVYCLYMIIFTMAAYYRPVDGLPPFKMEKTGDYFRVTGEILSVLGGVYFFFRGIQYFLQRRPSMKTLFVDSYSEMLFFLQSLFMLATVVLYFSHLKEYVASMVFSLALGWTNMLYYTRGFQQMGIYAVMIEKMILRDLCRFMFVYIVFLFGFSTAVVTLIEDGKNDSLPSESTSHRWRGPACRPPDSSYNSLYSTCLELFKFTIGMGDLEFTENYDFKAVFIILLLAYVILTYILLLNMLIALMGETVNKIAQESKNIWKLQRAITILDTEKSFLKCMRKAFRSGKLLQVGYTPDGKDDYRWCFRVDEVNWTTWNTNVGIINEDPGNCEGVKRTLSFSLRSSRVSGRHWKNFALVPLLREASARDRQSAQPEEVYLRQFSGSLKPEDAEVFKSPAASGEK
Description: as §1, §2, §3, §4, §5

[4] = molecular target: T3, human TRPM8 (Homo sapiens, UniProt Q7Z2W7); assay: as above; assay type: cell-based; conditions: 10 µmol/L test ingredient, positive control 20 µmol/L icilin, read-out: % Activation compared to positive control, TRPM8
T3 construct: The full length of each of human transient receptor potential ankyrin 1 (TRPA1); expressed in transfected cells
T3 sequence (Q7Z2W7 whole entry): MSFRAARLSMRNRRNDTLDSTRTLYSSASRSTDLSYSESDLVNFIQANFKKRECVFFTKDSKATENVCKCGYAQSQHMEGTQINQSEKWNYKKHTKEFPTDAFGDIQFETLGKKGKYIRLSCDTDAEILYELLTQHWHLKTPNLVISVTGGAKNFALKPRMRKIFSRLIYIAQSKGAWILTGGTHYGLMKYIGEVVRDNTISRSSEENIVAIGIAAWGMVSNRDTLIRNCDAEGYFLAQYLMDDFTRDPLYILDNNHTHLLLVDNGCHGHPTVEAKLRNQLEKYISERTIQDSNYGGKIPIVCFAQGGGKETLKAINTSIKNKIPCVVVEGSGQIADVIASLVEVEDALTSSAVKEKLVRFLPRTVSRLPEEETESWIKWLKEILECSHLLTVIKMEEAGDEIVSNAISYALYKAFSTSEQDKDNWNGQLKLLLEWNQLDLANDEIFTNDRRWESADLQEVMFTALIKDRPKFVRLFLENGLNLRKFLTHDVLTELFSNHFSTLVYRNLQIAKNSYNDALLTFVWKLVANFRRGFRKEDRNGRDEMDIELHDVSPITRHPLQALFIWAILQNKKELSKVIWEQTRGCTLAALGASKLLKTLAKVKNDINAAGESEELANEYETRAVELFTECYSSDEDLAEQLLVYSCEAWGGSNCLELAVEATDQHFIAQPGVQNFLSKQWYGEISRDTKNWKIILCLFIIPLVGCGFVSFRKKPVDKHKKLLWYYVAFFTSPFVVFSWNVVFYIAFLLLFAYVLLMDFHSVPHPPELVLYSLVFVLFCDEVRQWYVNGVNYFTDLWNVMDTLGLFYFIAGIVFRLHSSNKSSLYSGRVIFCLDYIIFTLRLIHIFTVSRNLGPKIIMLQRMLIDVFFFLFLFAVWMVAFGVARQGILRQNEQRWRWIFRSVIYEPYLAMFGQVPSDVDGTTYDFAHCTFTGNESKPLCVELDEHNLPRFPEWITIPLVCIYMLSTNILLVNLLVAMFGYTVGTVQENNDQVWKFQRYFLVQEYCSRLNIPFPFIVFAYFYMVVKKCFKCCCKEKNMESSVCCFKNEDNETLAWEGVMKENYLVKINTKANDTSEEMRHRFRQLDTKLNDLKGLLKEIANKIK
Description: as §1, §2, §3, §4, §5

[5] = molecular target: T4, human TRPA1 (Homo sapiens, UniProt O75762); assay: as above; assay type: cell-based; conditions: for activation at 10 µM: T-REx-293, 10 µmol/L test ingredient, positive control 20 µmol/L allyl isothiocyanate, read-out: % Activation compared to positive control, TRPA1
T4 construct: The full length of each of human transient receptor potential ankyrin 1 (TRPA1); expressed in transfected cells
T4 sequence (O75762 whole entry): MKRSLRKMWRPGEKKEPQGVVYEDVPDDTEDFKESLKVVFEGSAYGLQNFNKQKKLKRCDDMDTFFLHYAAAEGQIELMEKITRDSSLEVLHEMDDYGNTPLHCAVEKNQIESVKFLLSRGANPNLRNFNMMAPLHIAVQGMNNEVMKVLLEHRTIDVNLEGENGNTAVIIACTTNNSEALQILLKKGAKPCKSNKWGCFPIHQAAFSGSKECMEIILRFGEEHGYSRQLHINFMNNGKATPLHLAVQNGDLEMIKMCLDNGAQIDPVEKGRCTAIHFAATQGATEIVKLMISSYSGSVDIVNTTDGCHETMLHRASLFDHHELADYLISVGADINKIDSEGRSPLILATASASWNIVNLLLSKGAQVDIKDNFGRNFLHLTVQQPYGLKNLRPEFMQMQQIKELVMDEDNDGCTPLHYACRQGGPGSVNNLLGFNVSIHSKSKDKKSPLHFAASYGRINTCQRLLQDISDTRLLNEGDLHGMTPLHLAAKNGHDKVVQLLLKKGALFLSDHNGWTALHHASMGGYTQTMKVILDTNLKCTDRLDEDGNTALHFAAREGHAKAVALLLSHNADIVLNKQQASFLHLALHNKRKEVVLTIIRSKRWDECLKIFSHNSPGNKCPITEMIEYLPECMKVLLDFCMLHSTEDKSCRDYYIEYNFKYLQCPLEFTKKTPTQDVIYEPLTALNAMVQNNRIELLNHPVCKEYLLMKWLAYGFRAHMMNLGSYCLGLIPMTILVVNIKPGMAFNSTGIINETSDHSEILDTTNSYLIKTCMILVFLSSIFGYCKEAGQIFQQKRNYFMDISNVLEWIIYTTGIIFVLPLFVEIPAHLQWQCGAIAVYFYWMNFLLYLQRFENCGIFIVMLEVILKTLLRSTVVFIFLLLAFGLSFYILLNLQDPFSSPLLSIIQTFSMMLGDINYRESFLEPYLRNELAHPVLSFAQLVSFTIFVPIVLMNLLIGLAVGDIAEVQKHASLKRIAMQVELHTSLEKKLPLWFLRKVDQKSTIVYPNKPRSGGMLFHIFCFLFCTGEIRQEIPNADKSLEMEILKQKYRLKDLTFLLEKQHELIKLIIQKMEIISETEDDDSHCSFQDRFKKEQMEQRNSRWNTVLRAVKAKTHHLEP
Description: as §1, §2, §3, §4, §5

[6] = Pharmacokinetics of ingredients in rat plasma after oral administration of shimotsuto (targeted LC–MS/MS); assay type: in vivo
Description: The plasma levels of nine ingredients were quantified using quantitative (targeted) analysis. Among them, seven ingredients (catalpol, paeoniflorin, albiflorin, senkyunolide A, butylphthalide, ferulic acid, and ligustilide) are candidate active ingredients in shimotsuto (Table 1). Two ingredients (bergapten and 8-debenzoylpaeoniflorin) are shimotsuto ingredients which were detected and identified in shimotsuto-treated rat plasma using nontargeted LC–HRMS analysis. The nine ingredients were quantified by collecting plasma samples at 0–24 h after shimotsuto administration, pretreating with the following procedures, and then analyzing by targeted LC–MS/MS using selected reaction-monitoring mode. The LC–MS/MS system was composed of a triple quadruple MS (TripleQuad6500; SCIEX, Framingham, MA, USA) and an Agilent 1290 Infinity LC system (Agilent Technologies, Santa Clara, CA, USA). For highly sensitive and selective quantitative (targeted) analysis of each compound, we preliminarily examined optimal pretreatment and analytical LC–MS/MS methods (e.g., MS parameters and LC conditions).
For quantification of catalpol, paeoniflorin, albiflorin, ferulic acid, and senkyunolide A in plasma, 100 µL of plasma sample was mixed with 20 µL of methanol (or working solution) and 20 µL of internal standard (niflumic acid or swertiamarin) and pretreated by deproteinization using 500 µL of acetonitrile. […] Finally, the dried residue was dissolved in 60 µL of the specific HPLC mobile phase used for analysis and then a 10 μL aliquot was injected into the LC–MS/MS system.
For quantification of ligustilide and butylphthalide in plasma, 200 µL of plasma sample was mixed with 40 µL of methanol (or working solution) and 40 µL of internal standard (imperatorin) and centrifuged at 15000×g for 10 min at 4 °C, the whole volume of supernatant was collected and subsequently pretreated by solid-phase extraction using Oasis HLB Extraction Cartridge (Waters, Milford, MA, USA). The acetonitrile elutes were collected and then dried under a steam of nitrogen gas. Finally, the dried residue was dissolved in 70 µL of the specific HPLC mobile phase and injected 20 µL into the LC–MS/MS system.
For quantification of bergapten in plasma, 100 µL of plasma sample was mixed with 20 µL of methanol (or working solution) and 20 µL of internal standard (niflumic acid) and pretreated by solid-phase extraction using an Oasis HLB 96-well µElution plate. Next, the mixied elutes of acetonitrile and isopropyl alcohol (1:1, v/v) were collected and then dried under a steam of nitrogen gas. Finally, the dried residue was dissolved in 60 µL of the specific HPLC mobile phase and injected 10 µL into the LC–MS/MS system.
For quantification of 8-debenzoylpaeoniflorin in plasma, 100 µL of plasma sample was mixed with 20 µL of methanol (or working solution) and 20 µL of internal standard (niflumic acid) and pretreated by liquid–liquid extraction using 500 µL of ethyl acetate. […] The dried residue was dissolved in 60 µL of the specific HPLC mobile phase and injected 10 µL into the LC–MS/MS system.
In addition, pharmacokinetic parameters of the shimotsuto ingredients detected in the plasma, such as the maximum concentration (Cmax) and area under the plasma level–time curve (AUC0−last), were calculated by noncompartmental moment analysis using Phoenix WinNonlin software (Certara L.P., St. Louis, MO, USA).

[7] = cited from earlier work
[8] = Plasma levels of catalpol in humans after goshajinkigan administration (unpublished data); assay type: in vivo, human; conditions: after goshajinkigan (including Rehmanniae Radix) administration
[9] = set-up: method as in PMID 31514313; conditions: ref 18; cited from earlier work
[10] = system: transient receptor potential ankyrin 1 (TRPA1); set-up: method as in PMID 21894528; conditions: ref 15; cited from earlier work
[11] = set-up: method as in PMID 8932691; conditions: cited from earlier work

activation at 10 µM [2] | activation at 10 µM [3] | activation at 10 µM [4] | activation at 10 µM [5] | AUC(0-t) ([6]; rat, in vivo, po, 1 g/kg) | Cmax ([6]; rat, in vivo, po, 1 g/kg) | Tmax ([6]; rat, in vivo, po, 1 g/kg) | half-life ([6]; rat, in vivo, po, 1 g/kg) | Plasma levels in humans [8] | Activation of TRPA1 (in words) ([5]; TRP stable expression cell lines) | EC50 ([5]; dose–response test, Ca2+ influx, read-out: EC50 against TRPA1) | SMILES | Pharmacological action related to improvement of blood and the circulatory system [1] | Pharmacological action related to improvement of blood and the circulatory system ([7]; ref 11) | Absolute bioavailability [9] | Pharmacological action related to improvement of blood and the circulatory system [10] | Pharmacological action related to improvement of blood and the circulatory system ([7]; ref 8) | Pharmacological action related to improvement of blood and the circulatory system ([7]; ref 13) | Cumulative biliary excretion ([11]; after oral administration of paeoniflorin, within 24 h) | Bioavailability ([11]; in rats) | Tmax ([6]; rat plasma, oral shimotsuto 1 g/kg, from mean concentration (n = 3) per time point)
-1% | 0% | 1% | 1% | 24.2 ng·h/mL | 6.34 ng/mL | 30 min | 163 min | – | – | – | CC12CC(O)C3CC1(OC1OC(CO)C(O)C(O)C1O)C3(COC(=O)c1ccccc1)C(=O)O2 (stereo not shown) [Albiflorin] | Reduction of blood viscosity via antithrombotic effect in rat model [12] | – | – | – | – | – | – | – | –
0% | 0% | 3% | 2% | 2030 ng·h/mL | 1360 ng/mL | 60 min | 38.6 min | quite low | – | – | OC[C@H]1O[C@@H](O[C@@H]2OC=C[C@H]3[C@H](O)[C@@H]4O[C@]4(CO)[C@@H]23)[C@H](O)[C@@H](O)[C@@H]1O [Catalpol] | – | Protective effect on vascular endothelial function via multiple actions such as induction of serum nitric oxide [11] | 66.7% | – | – | – | – | – | –
-1% | 0% | 18% | 87% | 0.916 ng·h/mL | 2.83 ng/mL | 30 min | – | – | potently activated | 1300 nM | CCC/C=C1\OC(=O)C2=C1CCC=C2 [Ligustilide] | – | – | – | Activation of transient receptor potential ankyrin 1 (TRPA1; which plays a role in vasodilation) | vasorelaxation | vasorelaxation and increased blood flow effects | – | – | –

SMILES | activation at 10 µM [2] | activation at 10 µM [3] | activation at 10 µM [4] | activation at 10 µM [5] | AUC(0-t) ([6]; rat, in vivo, po, 1 g/kg) | Cmax ([6]; rat, in vivo, po, 1 g/kg) | Tmax ([6]; rat, in vivo, po, 1 g/kg) | half-life ([6]; rat, in vivo, po, 1 g/kg) | Plasma levels in humans [8] | Activation of TRPA1 (in words) ([5]; TRP stable expression cell lines) | EC50 ([5]; dose–response test, Ca2+ influx, read-out: EC50 against TRPA1) | Pharmacological action related to improvement of blood and the circulatory system [1] | Pharmacological action related to improvement of blood and the circulatory system ([7]; ref 11) | Absolute bioavailability [9] | Pharmacological action related to improvement of blood and the circulatory system [10] | Pharmacological action related to improvement of blood and the circulatory system ([7]; ref 8) | Pharmacological action related to improvement of blood and the circulatory system ([7]; ref 13) | Cumulative biliary excretion ([11]; after oral administration of paeoniflorin, within 24 h) | Bioavailability ([11]; in rats) | Tmax ([6]; rat plasma, oral shimotsuto 1 g/kg, from mean concentration (n = 3) per time point)
C[C@@]12C[C@@]3(O)O[C@@H](O1)[C@]1(COC(=O)c4ccccc4)[C@H]3C[C@@]12O[C@@H]1O[C@H](CO)[C@@H](O)[C@H](O)[C@H]1O [Paeoniflorin] | 0% | -1% | 0% | 1% | 83.6 ng·h/mL | 36.3 ng/mL | – | 88.8 min | – | – | – | Reduction of blood viscosity via antithrombotic effect in rat model [12] | – | – | – | – | – | 1.3 % of the dose | low | 30 min
